Marks after values point to notes of the source that are not given here.
Experiments:
Assay in all cases: imazapyr whole plant greenhouse test (Example 2)
Type in all cases: in vivo
[1] = test system: sunflower hybrid H2 (L3 × L4), A122T
Protocol: (§1) Seeds were sown in Petri dishes and, after germination, plantlets were transplanted to pots of 10 cm of diameter in a potting media consisting of equal parts of vermiculite, soil and sand. Plants were grown in a greenhouse under natural light conditions supplemented with 400 W sodium halide lamps to provide a 16 hr daylength. Day/night temperatures were 25 and 20 ° C., respectively. At the V2-V4 stage (Schneiter & Miller (1981) Crop Sci. 21:901-903) 10 plants of each genotype were randomly assigned to each treatment consisting of eight imazapyr doses (0, 40, 80, 160, 240, 320, 400 and 480 g ai/ha, corresponding to untreated, 0.5×, 1×, 2×, 3×, 4×, 5× and 6×, respectively), and a zero-time biomass determination. Experiment was arranged as a randomized block design with a full factorial (sunflower line×treatment) arrangement of treatments and 10 replications.
(§2) On the day of herbicide application ten plants of each genotype were cut at the cotyledonal node and dried at 60° C. for 48 hrs for zero-time dried weight determination.
(§3) The remaining plants were maintained for 14 days after imazapyr treatment (DAT) and their height, Phytotoxicity Index (PI) and above ground dry biomass were determined Height was determined as the distance between the cotyledonal node and the apex of each plant. Above ground biomass data from each line were converted to biomass accumulation after application by subtracting the appropriate average zero- time biomass from each sample. Dry biomass data were converted to percentages of the untreated control plants within each line to allow direct comparisons between groups.

[2] = test system: sunflower genotypes carrying A122T (mean of H2, L3, L4); conditions: for Phytotoxicity Index (0-9) 14 days after treatment / biomass accumulation 14 days after treatment, % of untreated / plant height 14 days after treatment, % of untreated: A122T Mean; for height reduction: of the untreated controls
Protocol: as §1, §2, §3

[3] = test system: sunflower genotypes A122T/A205V (mean of H3, H4); conditions: for Phytotoxicity Index (0-9) 14 days after treatment / biomass accumulation 14 days after treatment, % of untreated / plant height 14 days after treatment, % of untreated: A122T/A205V Mean; for height reduction: heterozygotes A122T/A205V, of the untreated controls; for reduction in biomass weight: heterozygous A122T/A205V
Protocol: as §1, §2, §3

For `CC(C)C1(C)N=C(c2ncccc2C(=O)O)NC1=O` (centres unmarked) [imazapyr], the “plant height 14 days after treatment, % of untreated” value ([1]; dose 4 (4x, 320 g ai/ha)) was 101.0%, the “Phytotoxicity Index (0-9) 14 days after treatment” value (“Phytotoxicity Index (0-9) 14 days” for short) ([1]; dose 5 (5x, 400 g ai/ha)) was 0.5 and the “biomass accumulation 14 days after treatment, % of untreated” value ([1]; dose 5 (5x, 400 g ai/ha)) was 85.1%. For the same compound, the “plant height 14 days after treatment, % of untreated” value ([1]; dose 5 (5x, 400 g ai/ha)) was 87.0%, the “Phytotoxicity Index (0-9) 14 days” value ([1]; dose 6 (6x, 480 g ai/ha)) was 0.5 and the “biomass accumulation 14 days after treatment, % of untreated” value ([1]; dose 6 (6x, 480 g ai/ha)) was 79.5%. The “plant height 14 days after treatment, % of untreated” value ([1]; dose 6 (6x, 480 g ai/ha)) was 79.6%, the “Phytotoxicity Index (0-9) 14 days” value ([2]; dose 0.5 (0.5x, 40 g ai/ha)) was 0.3 and the “biomass accumulation 14 days after treatment, % of untreated” value ([2]; dose 0.5 (0.5x, 40 g ai/ha)) was 98.9%. The “plant height 14 days after treatment, % of untreated” value ([2]; dose 0.5 (0.5x, 40 g ai/ha)) was 99.9%, the “Phytotoxicity Index (0-9) 14 days” value ([2]; dose 1 (1x, 80 g ai/ha)) was 0.3 and the “biomass accumulation 14 days after treatment, % of untreated” value ([2]; dose 1 (1x, 80 g ai/ha)) was 96.7* %. The “plant height 14 days after treatment, % of untreated” value ([2]; dose 1 (1x, 80 g ai/ha)) was 99.5%, the “Phytotoxicity Index (0-9) 14 days” value ([2]; dose 2 (2x, 160 g ai/ha)) was 0.3 and the “biomass accumulation 14 days after treatment, % of untreated” value ([2]; dose 2 (2x, 160 g ai/ha)) was 92.2** %. The “plant height 14 days after treatment, % of untreated” value ([2]; dose 2 (2x, 160 g ai/ha)) was 98.0%, the “Phytotoxicity Index (0-9) 14 days” value ([2]; dose 3 (3x, 240 g ai/ha)) was 0.3 and the “biomass accumulation 14 days after treatment, % of untreated” value ([2]; dose 3 (3x, 240 g ai/ha)) was 90.0** %. The “plant height 14 days after treatment, % of untreated” value ([2]; dose 3 (3x, 240 g ai/ha)) was 95.7* %, the “Phytotoxicity Index (0-9) 14 days” value ([2]; dose 4 (4x, 320 g ai/ha)) was 0.5 and the “biomass accumulation 14 days after treatment, % of untreated” value ([2]; dose 4 (4x, 320 g ai/ha)) was 85.7** %. The “plant height 14 days after treatment, % of untreated” value ([2]; dose 4 (4x, 320 g ai/ha)) was 94.6** %, the “Phytotoxicity Index (0-9) 14 days” value ([2]; dose 5 (5x, 400 g ai/ha)) was 0.8 and the “biomass accumulation 14 days after treatment, % of untreated” value ([2]; dose 5 (5x, 400 g ai/ha)) was 74.3** %. For the same compound, the “plant height 14 days after treatment, % of untreated” value ([2]; dose 5 (5x, 400 g ai/ha)) was 85.4** %, the “Phytotoxicity Index (0-9) 14 days” value ([2]; dose 6 (6x, 480 g ai/ha)) was 1.2 and the “biomass accumulation 14 days after treatment, % of untreated” value ([2]; dose 6 (6x, 480 g ai/ha)) was 69.9** %. For the same compound, the “plant height 14 days after treatment, % of untreated” value ([2]; dose 6 (6x, 480 g ai/ha)) was 81.2** %, the height reduction ([2]; A122T homozygous, 0.5x) was 0.1% and the height reduction ([2]; A122T homozygous, 6x) was 18.8%. For the same compound, the “reduction of biomass weight” value ([2]; A122T homozygous, higher dose (6x)) was 25%, the “Phytotoxicity Index (0-9) 14 days” value ([3]; dose 0.5 (0.5x, 40 g ai/ha)) was 0.5 and the “biomass accumulation 14 days after treatment, % of untreated” value ([3]; dose 0.5 (0.5x, 40 g ai/ha)) was 99.6%. For the same compound, the “plant height 14 days after treatment, % of untreated” value ([3]; dose 0.5 (0.5x, 40 g ai/ha)) was 99.4%, the “Phytotoxicity Index (0-9) 14 days” value ([3]; dose 1 (1x, 80 g ai/ha)) was 0.5 and the “biomass accumulation 14 days after treatment, % of untreated” value ([3]; dose 1 (1x, 80 g ai/ha)) was 98.9%. For the same compound, the “plant height 14 days after treatment, % of untreated” value ([3]; dose 1 (1x, 80 g ai/ha)) was 98.3%, the “Phytotoxicity Index (0-9) 14 days” value ([3]; dose 2 (2x, 160 g ai/ha)) was 0.5 and the “biomass accumulation 14 days after treatment, % of untreated” value ([3]; dose 2 (2x, 160 g ai/ha)) was 93.2** %. For the same compound, the “plant height 14 days after treatment, % of untreated” value ([3]; dose 2 (2x, 160 g ai/ha)) was 98.3%, the “Phytotoxicity Index (0-9) 14 days” value ([3]; dose 3 (3x, 240 g ai/ha)) was 0.5 and the “biomass accumulation 14 days after treatment, % of untreated” value ([3]; dose 3 (3x, 240 g ai/ha)) was 89.5** %. The “plant height 14 days after treatment, % of untreated” value ([3]; dose 3 (3x, 240 g ai/ha)) was 96.9%, the “Phytotoxicity Index (0-9) 14 days” value ([3]; dose 4 (4x, 320 g ai/ha)) was 0.5 and the “biomass accumulation 14 days after treatment, % of untreated” value ([3]; dose 4 (4x, 320 g ai/ha)) was 86.4** %. The “plant height 14 days after treatment, % of untreated” value ([3]; dose 4 (4x, 320 g ai/ha)) was 93.5** %, the “Phytotoxicity Index (0-9) 14 days” value ([3]; dose 5 (5x, 400 g ai/ha)) was 0.6 and the “biomass accumulation 14 days after treatment, % of untreated” value ([3]; dose 5 (5x, 400 g ai/ha)) was 75.4** %. For the same compound, the “plant height 14 days after treatment, % of untreated” value ([3]; dose 5 (5x, 400 g ai/ha)) was 76.3** %, the “Phytotoxicity Index (0-9) 14 days” value ([3]; dose 6 (6x, 480 g ai/ha)) was 1 and the “biomass accumulation 14 days after treatment, % of untreated” value ([3]; dose 6 (6x, 480 g ai/ha)) was 67.5** %. For the same compound, the “plant height 14 days after treatment, % of untreated” value ([3]; dose 6 (6x, 480 g ai/ha)) was 61.8** %, the height reduction ([3]; 0.5x) was 0.6% and the height reduction ([3]; 6x) was 38.2%. The “reduction in biomass weight” value ([3]; 0.5x) was 0.3% and the “reduction in biomass weight” value ([3]; 6x) was 33%.
